# Measurements reported in patent EP4173621A1 (priority 2021, dated 2023).
# Like-named read-outs stand apart in the source and are kept apart here.
# How the values were obtained:
# VSVg pseudotyped LV = format: cell-based
# Caco2 = Caco2 cell line, within the 0-50µM range
# in vitro [1] = conditions: human
# SARS-CoV-2 = assay: Antiviral activity summarised over all the cell lines; format: cell-based
# A549-ACE2 = conditions: A549 cell line, within the 0-50µM range
# [2] = system: SARS-CoV-2 reference strain; assay: microbe, parasite or virus in culture; format: cell-based
# in vitro [3] = conditions: human; remark: listed apart in the source
# HEK293T-ACE2 = conditions: HEK-293T cell line, within the 0-50µM range
# [4] = target: SARS-CoV-2 S-RBD(His)6 and human ACE2-Biot interaction (Severe acute respiratory syndrome coronavirus 2, UniProt P0DTC2); assay: AlphaLISA competition assay of the S-RBD/ACE2 interaction; format: binding, SARS-CoV-2 / human; conditions: at 25 µM of drug; 3 nM of each protein
# [5] = system: lentiviral vectors pseudotyped with the SARS-CoV-2 Spike protein (CoV-2 LV); assay: microbe, parasite or virus in culture; format: cell-based; conditions: Severe acute respiratory syndrome coronavirus 2; 293-ACE2 cells (Table 1)
# Calu3 = Calu3 cell line, within the 0-50µM range
# in vitro [6] = conditions: human; remark: listed apart in the source
# [7] = system: SARS-CoV-2 reference strain; assay: microbe, parasite or virus in culture; format: cell-based; conditions: Severe acute respiratory syndrome coronavirus 2, Calu-3
structure (smiles),measurement,setting,value
"C(=C\c1nc2ccccc2s1)/c1cccc(N(c2cccc(/C=C/c3nc4ccccc4s3)c2)c2cccc(/C=C/c3nc4ccccc4s3)c2)c1 [TP m 3BTZ compound, Tris {3-(2-(benzothiazole-2-yl)vinylphenyl}amine)]",effect on the VSVg LVs infectivity,VSVg pseudotyped LV,without significant effect
same,cytotoxicity (MTT assay),Caco2,no or poor cytoxoxicity
same,CC50,in vitro [1],> 50 µM
same,IC50,"SARS-CoV-2; Severe acute respiratory syndrome coronavirus 2, among all the cell lines",0.25 to 5 µM
same,selectivity indexes,SARS-CoV-2; among all the cell lines,> 10
same,selectivity index (SI),SARS-CoV-2; based on apparent IC50 and CC50 in the different cell lines,higher than 50
same,cytotoxicity (MTT assay),A549-ACE2,no or poor cytoxoxicity
same,inhibition of the viral replication,"[2]; A549-ACE2 cells, SARS-CoV-2 reference strain, 24 hours",induced an inhibition of the viral replication
same,IC50,"[2]; Severe acute respiratory syndrome coronavirus 2, A549-ACE2, A 549-ACE2 cells (Table 1)",2.5 µM
same,CC50,in vitro [3],> 50 µM
same,cytotoxicity (MTT assay),HEK293T-ACE2,no or poor cytoxoxicity
same,inhibition of the formation of the RBD/ACE2 complex (AlphaLISA),[4],50%
same,IC50,[5],1 µM
same,cytotoxicity (MTT assay),Calu3,no or poor cytoxoxicity
same,CC50,in vitro [6],> 50 µM
same,IC50,"[7]; Calu3 cells (Table 1), read-out: IC50",5 µM
same,IC50,"[7]; Calu3 cells, SARS-CoV-2 reference strain, 24 hours, read-out: concentration leading to 50% inhibition of the viral replication",~1 µM
